Like-named read-outs stand apart in the source and are kept apart here.
Experiments:
Type in all cases: in vitro ADME
CYP2B6 = molecular target: T1, CYP2B6 (Homo sapiens, UniProt P20813); assay: CYP inhibition in human liver microsomes, CYP2B6; conditions: probe bupropion, substrate bupropion, read-out: CYP2B6 Inh %
T1 construct: incubated with human liver microsomes; from tissue; host or cells: human liver microsomes
T1 sequence (P20813 1-491): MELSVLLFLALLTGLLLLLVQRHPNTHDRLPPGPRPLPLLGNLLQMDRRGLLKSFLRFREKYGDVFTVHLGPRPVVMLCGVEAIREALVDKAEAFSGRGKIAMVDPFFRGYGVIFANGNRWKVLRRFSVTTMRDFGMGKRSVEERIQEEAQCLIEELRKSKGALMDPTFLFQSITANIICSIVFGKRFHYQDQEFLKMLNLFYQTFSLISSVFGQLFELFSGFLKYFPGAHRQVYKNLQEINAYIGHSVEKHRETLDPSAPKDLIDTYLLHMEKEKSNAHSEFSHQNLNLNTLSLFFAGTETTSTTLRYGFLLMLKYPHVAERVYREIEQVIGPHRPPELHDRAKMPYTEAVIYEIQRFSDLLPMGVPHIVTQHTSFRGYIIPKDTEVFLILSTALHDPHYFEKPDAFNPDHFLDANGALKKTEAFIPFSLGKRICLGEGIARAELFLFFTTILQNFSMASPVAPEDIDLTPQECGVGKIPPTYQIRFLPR

CYP2C19 = molecular target: T2, CYP2C19 (Homo sapiens, UniProt P33261); assay: CYP inhibition in human liver microsomes, CYP2C19; conditions: probe omeprazole, substrate omeprazole, read-out: CYP2C19 Inh %
T2 construct: incubated with human liver microsomes; from tissue; host or cells: human liver microsomes

CYP3A4&5 = assay: CYP inhibition in human liver microsomes, CYP3A4&5 testosterone; conditions: probe testosterone, substrate testosterone, read-out: CYP3A4&5 testosterone Inh %
CYP2C9 = CYP2C9 (Homo sapiens, UniProt P11712); assay: CYP inhibition in human liver microsomes, CYP2C9; design: incubated with human liver microsomes; from tissue; host or cells: human liver microsomes; conditions: probe diclofenac, substrate diclofenac, read-out: CYP2C9 Inh %
[1] = Metabolic stability in pooled human liver microsomes; conditions: human liver microsomes 0.5 mg/mL, 1 μM compound, 37° C.
CYP3A4 = CYP3A4 (Homo sapiens, UniProt P08684); assay: CYP inhibition in human liver microsomes, CYP3A4 midazolam; design: incubated with human liver microsomes; from tissue; host or cells: human liver microsomes; conditions: probe midazolam, substrate midazolam, read-out: CYP3A4 midazolam Inh %
CYP2D6 = molecular target: T3, CYP2D6 (Homo sapiens, UniProt P10635); assay: CYP inhibition in human liver microsomes, CYP2D6; conditions: probe dextromethorphan, substrate dextromethorphan, read-out: CYP2D6 Inh %
T3 construct: incubated with human liver microsomes; from tissue; host or cells: human liver microsomes

CYP2C8 = molecular target: T4, CYP2C8 (Homo sapiens, UniProt P10632); assay: CYP inhibition in human liver microsomes, CYP2C8; conditions: probe paclitaxel and amodiaquine, substrates paclitaxel and amodiaquine, read-out: CYP2C8 Inh %
T4 construct: incubated with human liver microsomes; from tissue; host or cells: human liver microsomes
T4 sequence (P10632 1-490): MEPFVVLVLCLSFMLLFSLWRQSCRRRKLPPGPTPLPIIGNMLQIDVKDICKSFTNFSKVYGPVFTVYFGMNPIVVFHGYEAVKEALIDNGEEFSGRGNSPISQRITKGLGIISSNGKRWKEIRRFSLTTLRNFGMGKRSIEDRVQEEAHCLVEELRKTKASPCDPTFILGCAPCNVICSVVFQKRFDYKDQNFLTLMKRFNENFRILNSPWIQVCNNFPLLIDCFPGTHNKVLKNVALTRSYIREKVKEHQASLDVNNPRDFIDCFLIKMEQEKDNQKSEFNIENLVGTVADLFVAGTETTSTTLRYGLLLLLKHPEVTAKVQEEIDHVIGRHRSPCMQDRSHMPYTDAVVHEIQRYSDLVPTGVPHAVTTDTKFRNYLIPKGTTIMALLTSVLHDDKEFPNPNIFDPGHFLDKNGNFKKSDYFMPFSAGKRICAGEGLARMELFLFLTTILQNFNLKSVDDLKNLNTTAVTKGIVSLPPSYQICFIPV

CYP1A = molecular target: T5, CYP1A (Homo sapiens, UniProt P05177); assay: CYP inhibition in human liver microsomes, CYP1A; conditions: probe phenacetin, substrate phenacetin, read-out: CYP1A Inh %
T5 construct: incubated with human liver microsomes; from tissue; host or cells: human liver microsomes

[2] = with 1 mM NADPH, read-out: T1/2, + NaDPH
[3] = without NADPH, read-out: T1/2, no NaDPH

Sequence of CYP3A4 (P08684 whole entry): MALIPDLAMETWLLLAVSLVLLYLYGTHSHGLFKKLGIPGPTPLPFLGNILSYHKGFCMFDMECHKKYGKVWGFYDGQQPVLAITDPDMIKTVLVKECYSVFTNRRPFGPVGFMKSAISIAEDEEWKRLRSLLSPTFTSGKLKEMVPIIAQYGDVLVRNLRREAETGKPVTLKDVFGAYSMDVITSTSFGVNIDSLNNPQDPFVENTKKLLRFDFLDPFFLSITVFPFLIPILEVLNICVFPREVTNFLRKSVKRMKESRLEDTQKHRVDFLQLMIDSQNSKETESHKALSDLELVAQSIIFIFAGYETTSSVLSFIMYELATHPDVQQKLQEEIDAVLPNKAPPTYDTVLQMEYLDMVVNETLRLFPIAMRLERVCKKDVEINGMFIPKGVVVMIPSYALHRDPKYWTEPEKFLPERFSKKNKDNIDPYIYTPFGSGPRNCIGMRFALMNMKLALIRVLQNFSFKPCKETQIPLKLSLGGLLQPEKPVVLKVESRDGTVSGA
T3 sequence (P10635 whole entry): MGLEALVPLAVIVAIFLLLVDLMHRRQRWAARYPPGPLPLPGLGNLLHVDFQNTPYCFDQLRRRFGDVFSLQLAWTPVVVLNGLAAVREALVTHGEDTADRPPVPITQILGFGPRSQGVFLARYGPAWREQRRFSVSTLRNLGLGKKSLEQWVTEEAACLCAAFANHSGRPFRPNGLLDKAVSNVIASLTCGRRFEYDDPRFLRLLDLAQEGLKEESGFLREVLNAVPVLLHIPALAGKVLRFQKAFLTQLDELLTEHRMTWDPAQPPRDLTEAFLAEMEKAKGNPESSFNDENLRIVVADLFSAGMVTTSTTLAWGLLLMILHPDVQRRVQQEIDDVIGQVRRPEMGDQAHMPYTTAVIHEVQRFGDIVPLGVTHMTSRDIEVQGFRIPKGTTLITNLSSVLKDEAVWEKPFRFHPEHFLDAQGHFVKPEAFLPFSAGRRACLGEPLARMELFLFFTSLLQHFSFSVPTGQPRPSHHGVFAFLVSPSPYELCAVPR
Sequence of CYP2C9 (P11712 whole entry): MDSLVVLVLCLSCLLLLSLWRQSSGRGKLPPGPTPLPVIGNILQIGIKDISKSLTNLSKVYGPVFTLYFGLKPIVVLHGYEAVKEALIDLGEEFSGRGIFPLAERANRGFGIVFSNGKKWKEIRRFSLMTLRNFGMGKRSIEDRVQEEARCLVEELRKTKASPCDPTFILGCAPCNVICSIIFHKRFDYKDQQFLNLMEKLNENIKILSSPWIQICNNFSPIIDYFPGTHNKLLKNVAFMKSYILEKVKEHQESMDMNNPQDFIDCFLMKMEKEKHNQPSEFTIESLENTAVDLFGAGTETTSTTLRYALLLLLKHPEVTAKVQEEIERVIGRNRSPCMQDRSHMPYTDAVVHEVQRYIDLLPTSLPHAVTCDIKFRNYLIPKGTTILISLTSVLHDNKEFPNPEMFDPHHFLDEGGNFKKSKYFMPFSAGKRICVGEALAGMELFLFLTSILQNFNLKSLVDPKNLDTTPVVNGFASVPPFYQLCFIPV
T5 sequence (P05177 whole entry): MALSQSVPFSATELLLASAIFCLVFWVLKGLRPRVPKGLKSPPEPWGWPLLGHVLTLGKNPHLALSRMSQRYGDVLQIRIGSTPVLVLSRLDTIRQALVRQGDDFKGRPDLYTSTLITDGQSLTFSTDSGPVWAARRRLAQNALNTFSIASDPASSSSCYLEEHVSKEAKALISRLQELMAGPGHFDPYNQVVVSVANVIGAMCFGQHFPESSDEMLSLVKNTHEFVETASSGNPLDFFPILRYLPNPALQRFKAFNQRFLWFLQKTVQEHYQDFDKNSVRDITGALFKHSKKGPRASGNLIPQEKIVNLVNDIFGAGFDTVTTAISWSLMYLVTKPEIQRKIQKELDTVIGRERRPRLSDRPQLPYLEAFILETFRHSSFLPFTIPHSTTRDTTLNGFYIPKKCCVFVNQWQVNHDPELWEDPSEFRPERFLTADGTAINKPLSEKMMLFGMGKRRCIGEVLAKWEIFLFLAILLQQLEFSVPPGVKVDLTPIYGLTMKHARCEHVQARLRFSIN
T2 sequence (P33261 whole entry): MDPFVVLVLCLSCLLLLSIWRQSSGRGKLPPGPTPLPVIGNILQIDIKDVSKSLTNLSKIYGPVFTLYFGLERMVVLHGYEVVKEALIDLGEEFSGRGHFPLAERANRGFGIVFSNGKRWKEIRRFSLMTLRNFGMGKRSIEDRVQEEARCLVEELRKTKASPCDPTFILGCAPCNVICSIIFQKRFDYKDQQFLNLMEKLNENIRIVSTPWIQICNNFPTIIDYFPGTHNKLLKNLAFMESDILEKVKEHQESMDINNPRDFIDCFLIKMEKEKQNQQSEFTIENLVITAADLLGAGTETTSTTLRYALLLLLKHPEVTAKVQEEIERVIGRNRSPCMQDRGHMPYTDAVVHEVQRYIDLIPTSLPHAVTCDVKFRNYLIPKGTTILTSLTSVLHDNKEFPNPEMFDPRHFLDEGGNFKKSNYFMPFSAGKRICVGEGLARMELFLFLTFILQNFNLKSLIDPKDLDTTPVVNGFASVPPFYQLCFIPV

CCOC(=O)NS(=O)(=O)c1ccc(CC(C)C)cc1-c1ccc(Cn2ccnc2CC)c(F)c1 [Example 14, Ethyl ((4′-((2-ethyl-1H-imidazol-1-yl)methyl)-3′-fluoro-5-isobutyl-[1,1′-biphenyl]-2-yl)sulfonyl)carbamate]
inhibition at 10 µM (CYP2B6): 20.6% | inhibition at 10 µM (CYP2C19): 40.9% | inhibition at 10 µM (CYP3A4&5): 21.9% | inhibition at 10 µM (CYP2C9): 68% | half-life at 1 μM [1, 2]: 43 min | half-life at 1 μM [1, 3]: 46 min | inhibition at 10 µM (CYP3A4): -4.2% | inhibition at 10 µM (CYP2D6): 0.1% | inhibition at 10 µM (CYP2C8): 57.6% | inhibition at 10 µM (CYP1A): 9.4%

COC(=O)NS(=O)(=O)c1ccc(CC(C)C)cc1-c1ccc(Cn2ccnc2C)c(F)c1 [Example 13, Methyl ((3′-fluoro-5-isobutyl-4′-((2-methyl-1H-imidazol-1-yl)methyl)-[1,1′-biphenyl]-2-yl)sulfonyl)carbamate]
inhibition at 10 µM (CYP2B6): 18.4% | inhibition at 10 µM (CYP2C19): 24.6% | inhibition at 10 µM (CYP3A4&5): 14.5% | inhibition at 10 µM (CYP2C9): 32.3% | half-life at 1 μM [1, 2]: > 60 min | half-life at 1 μM [1, 3]: > 60 min | inhibition at 10 µM (CYP3A4): 9.3% | inhibition at 10 µM (CYP2D6): -0.8% | inhibition at 10 µM (CYP2C8): 27.7% | inhibition at 10 µM (CYP1A): 7.6%

CCCCOC(=O)NS(=O)(=O)c1ccc(CC(C)C)cc1-c1ccc(Cn2ccnc2C)c(F)c1 [Example 10, Butyl ((3′-fluoro-5-isobutyl-4′-((2-methyl-1H-imidazol-1-yl)methyl)-[1,1′-biphenyl]-2-yl)sulfonyl)carbamate]
inhibition at 10 µM (CYP2B6): 31.8% | inhibition at 10 µM (CYP2C19): 54.9% | inhibition at 10 µM (CYP3A4&5): 24.5% | inhibition at 10 µM (CYP2C9): 68.6% | half-life at 1 μM [1, 2]: 32 min | half-life at 1 μM [1, 3]: 35 min | inhibition at 10 µM (CYP3A4): 11.5% | inhibition at 10 µM (CYP2D6): -12.9% | inhibition at 10 µM (CYP2C8): 46.9% | inhibition at 10 µM (CYP1A): 3.2%

CCCCOC(=O)NS(=O)(=O)c1ccc(CC(C)C)cc1-c1ccc(Cn2ccnc2C(C)C)c(F)c1 [Example 7, Butyl ((3′-fluoro-5-isobutyl-4′-((2-isopropyl-1H-imidazol-1-yl)methyl)-[1,1′-biphenyl]-2-yl)sulfonyl)carbamate]
inhibition at 10 µM (CYP2B6): 52.2% | inhibition at 10 µM (CYP2C19): 59.3% | inhibition at 10 µM (CYP3A4&5): 29.7% | inhibition at 10 µM (CYP2C9): 80.7% | half-life at 1 μM [1, 2]: 18 min | half-life at 1 μM [1, 3]: 20 min | inhibition at 10 µM (CYP3A4): 9.7% | inhibition at 10 µM (CYP2D6): -4.1% | inhibition at 10 µM (CYP2C8): 73.9% | inhibition at 10 µM (CYP1A): 6.3%

CCOC(=O)NS(=O)(=O)c1ccc(CC(C)C)cc1-c1ccc(Cn2ccnc2C(C)(C)C)c(F)c1 [Example 6, Ethyl ((4′-((2-(tert-butyl)-1H-imidazol-1-yl)methyl)-3′-fluoro-5-isobutyl-[1,1′-biphenyl]-2-yl)sulfonyl)carbamate]
inhibition at 10 µM (CYP2B6): 26.4% | inhibition at 10 µM (CYP2C19): 49.3% | inhibition at 10 µM (CYP3A4&5): 31% | inhibition at 10 µM (CYP2C9): 72.2% | half-life at 1 μM [1, 2]: 12 min | half-life at 1 μM [1, 3]: 14 min | inhibition at 10 µM (CYP3A4): 19.9% | inhibition at 10 µM (CYP2D6): 33.1% | inhibition at 10 µM (CYP2C8): 53% | inhibition at 10 µM (CYP1A): 8.6%

CCCCOC(=O)NS(=O)(=O)c1ccc(CC(C)C)cc1-c1ccc(Cn2ccnc2CC)c(F)c1 [Example 11, Butyl ((4′-((2-ethyl-1H-imidazol-1-yl)methyl)-3′-fluoro-5-isobutyl-[1,1′-biphenyl]-2-yl)sulfonyl)carbamate]
inhibition at 10 µM (CYP2B6): 35% | inhibition at 10 µM (CYP2C19): 59.3% | inhibition at 10 µM (CYP3A4&5): 30.5% | inhibition at 10 µM (CYP2C9): 81.3% | half-life at 1 μM [1, 2]: 26 min | half-life at 1 μM [1, 3]: 26 min | inhibition at 10 µM (CYP3A4): 5.6% | inhibition at 10 µM (CYP2D6): 0.3% | inhibition at 10 µM (CYP2C8): 61.3% | inhibition at 10 µM (CYP1A): 4.3%

COC(=O)NS(=O)(=O)c1ccc(CC(C)C)cc1-c1ccc(Cn2ccnc2C(C)(C)C)c(F)c1 [Example 5, Methyl ((4′-((2-(tert-butyl)-1H-imidazol-1-yl)methyl)-3′-fluoro-5-isobutyl-[1,1′-biphenyl]-2-yl)sulfonyl)carbamate]
inhibition at 10 µM (CYP2B6): 26.2% | inhibition at 10 µM (CYP2C19): 34.4% | inhibition at 10 µM (CYP3A4&5): 15.1% | inhibition at 10 µM (CYP2C9): 72% | half-life at 1 μM [1, 2]: > 60 min | half-life at 1 μM [1, 3]: > 60 min | inhibition at 10 µM (CYP3A4): 3.8% | inhibition at 10 µM (CYP2D6): 17.7% | inhibition at 10 µM (CYP2C8): 87.9% | inhibition at 10 µM (CYP1A): -13.1%

CCOC(=O)NS(=O)(=O)c1ccc(CC(C)C)cc1-c1ccc(Cn2ccnc2C(C)C)c(F)c1 [Example 8, Ethyl ((3′-fluoro-5-isobutyl-4′-((2-isopropyl-1H-imidazol-1-yl)methyl)-[1,1′-biphenyl]-2-yl)sulfonyl)carbamate]
inhibition at 10 µM (CYP2B6): 32% | inhibition at 10 µM (CYP2C19): 33.7% | inhibition at 10 µM (CYP3A4&5): 19.4% | inhibition at 10 µM (CYP2C9): 50% | half-life at 1 μM [1, 2]: 36 min | half-life at 1 μM [1, 3]: 35 min | inhibition at 10 µM (CYP3A4): -4.7% | inhibition at 10 µM (CYP2D6): 1.2% | inhibition at 10 µM (CYP2C8): 76.7% | inhibition at 10 µM (CYP1A): 10.4%

CCOC(=O)NS(=O)(=O)c1ccc(CC(C)C)cc1-c1ccc(Cn2ccnc2C)c(F)c1 [Example 12, Ethyl ((3′-fluoro-5-isobutyl-4′-((2-methyl-1H-imidazol-1-yl)methyl)-[1,1′-biphenyl]-2-yl)sulfonyl)carbamate]
inhibition at 10 µM (CYP2B6): 18.9% | inhibition at 10 µM (CYP2C19): 50.7% | inhibition at 10 µM (CYP3A4&5): 12.6% | inhibition at 10 µM (CYP2C9): 52.6% | half-life at 1 μM [1, 2]: > 60 min | half-life at 1 μM [1, 3]: 50 min | inhibition at 10 µM (CYP3A4): 8.6% | inhibition at 10 µM (CYP2D6): 2.9% | inhibition at 10 µM (CYP2C8): 39.7% | inhibition at 10 µM (CYP1A): 5.9%

CC(C)Cc1ccc(S(=O)(=O)NC(=O)OCCO)c(-c2ccc(Cn3ccnc3C(C)(C)C)cc2)c1 [Example 16, 2-Hydroxyethyl (4′-((2-(tert-butyl)-1H-imidazol-1-yl)methyl)-5-isobutyl-[1,1′-biphenyl]-2-yl)sulfonylcarbamate]
half-life at 1 μM [1, 2]: > 60 min | half-life at 1 μM [1, 3]: > 60 min

COC(=O)NS(=O)(=O)c1ccc(CC(C)C)cc1-c1ccc(Cn2ccnc2C(C)C)c(F)c1 [Example 9, Methyl ((3′-fluoro-5-isobutyl-4′-((2-isopropyl-1H-imidazol-1-yl)methyl)-[1,1′-biphenyl]-2-yl)sulfonyl)carbamate]
inhibition at 10 µM (CYP2B6): 28.2% | inhibition at 10 µM (CYP2C19): 27.2% | inhibition at 10 µM (CYP3A4&5): 17.5% | inhibition at 10 µM (CYP2C9): 37.9% | half-life at 1 μM [1, 2]: > 60 min | half-life at 1 μM [1, 3]: > 60 min | inhibition at 10 µM (CYP3A4): -4.9% | inhibition at 10 µM (CYP2D6): -2.4% | inhibition at 10 µM (CYP2C8): 77.2% | inhibition at 10 µM (CYP1A): 2.5%

CCc1nccn1Cc1ccc(-c2cc(CC(C)C)ccc2S(=O)(=O)NC(=O)OC)cc1F [Example 15, Methyl ((4′-((2-ethyl-1H-imidazol-1-yl)methyl)-3′-fluoro-5-isobutyl-[1,1′-biphenyl]-2-yl)sulfonyl)carbamate]
inhibition at 10 µM (CYP2B6): 16.1% | inhibition at 10 µM (CYP2C19): 21.5% | inhibition at 10 µM (CYP3A4&5): 18.4% | inhibition at 10 µM (CYP2C9): 59.6% | half-life at 1 μM [1, 2]: > 60 min | half-life at 1 μM [1, 3]: > 60 min | inhibition at 10 µM (CYP3A4): -5.3% | inhibition at 10 µM (CYP2D6): 2.2% | inhibition at 10 µM (CYP2C8): 52.4% | inhibition at 10 µM (CYP1A): 7%

— patent US20240182461A1, “SELECTIVE ANGIOTENSIN II RECEPTOR LIGANDS” (priority 2021, published 2024)
